The text below walks through data of patent publication US5451572A (Genentech, Inc., priority 1993, dated 1995).

Series [1] in a line: Reverse phase HPLC stability of liquid relaxin formulations. Particulars: in Milli-Q water at 5° C., reference material.
Method: All buffers were made up to isotonicity (0.154 μ) with the addition of NaCl. […] The resulting 135 100-μL-microvials and 90 1.5-ml-vials were placed on stability tests at 5, 25 and 40° C. Samples were assayed at 0, 7, 21, and 30 days by reverse phase HPLC, ELISA, and cyclic AMP assays. In addition to these assays, the samples were also assayed by near UV circular dichroism (near UV CD) and analytical ultracentrifugation (UC) on days 0 and 30.
The resulting nine samples were each sterile filtered, divided into three equal volumes, and loaded into sterile 300 μL glass microvials. The resulting 27 vials containing about 9 mg were placed on stability testing at 5, 25, and 40° C. for up to 40 days. Samples were assayed by an ELISA assay and a C4 reverse-phase HPLC assay on days 0, 7, 14, 28, and 40. The remaining 3 mg of relaxin was kept in Milli-Q water at 5° C. and used as the reference material. […] These observations were repeated on reference samples used in subsequent stability studies. […]
Study 1: The degradation of relaxin as a function of time was monitored by reverse phase HPLC. […] The fraction of the main peak remaining was computed from triplicate samples (when available), and first-order plots of the degradation kinetics of the main HPLG peak for the five formulations shown in Table I (ranging from 3.0 to 7.5) were determined. […]
Series [2] has as its system cervix. Particulars: 2-mg dose in methylcellulose gel; MacLennan et al. (1981); cited from earlier work.
For series [3], the system named is cervix. The note with it: infusion of 3000 units in the cervical os; Perezgrovas and Anderson (1982); cited from earlier work.
A further series has as its system rabbit cervix. The series can be described thus: Efficacy on the ripening of the rabbit cervix. Type of series: in vivo. Particulars: initial study, 300 μg/ml topical formulation, 0.5 ml intravaginal, eighteen hours. As for the experimental part: Mature pregnant female New Zealand rabbits weighing 4.5 to 6.0 kg were studied. […] Both hormones were applied intravaginally by means of a syringe and a catheter in a volume of 0.5 ml. Control animals received the vehicle alone. After 16-18 hours, the animals were sacrificed using a lethal dose of pentobarbital. […] Paraffin sections were cut and stained with hematoxylin/eosin and alcian blue PAS. Sections were evaluated for general morphology, and specifically for the degree of separation of muscular tissue and collagen fibrils in the submucosa and for the presence of characteristic PAS positive giant cells, which are multinucleate cells of macrophage origin that normally infiltrate the cervix during labor. The measurement of giant cells is accomplished using the procedure described by MacLennan et al., Am J. Obstet.

Some results are limits rather than exact numbers.

Consider `CC[C@H](C)[C@@H]1NC(=O)[C@H](C)NC(=O)[C@H]([C@@H](C)CC)NC(=O)[C@H](CCC(N)=O)NC(=O)[C@H](C)NC(=O)[C@H](CCCNC(=N)N)NC(=O)[C@H](C(C)C)NC(=O)[C@H](CC(C)C)NC(=O)[C@H](CCC(=O)O)NC(=O)[C@H](CCCNC(=N)N)NC(=O)CNC(=O)[C@@H](NC(=O)[C@H](CC(C)C)NC(=O)[C@H](CCCCN)NC(=O)[C@@H](NC(=O)[C@@H](NC(=O)[C@H](CCC(=O)O)NC(=O)[C@H](CCC(=O)O)NC(=O)[C@H](CCSC)NC(=O)[C@H](Cc2c[nH]c3ccccc23)NC(=O)[C@H](CO)NC(=O)[C@@H](N)CC(=O)O)C(C)C)[C@@H](C)CC)CSSC[C@@H]2NC(=O)[C@@H](NC(=O)[C@H](CCCCN)NC(=O)[C@H](CC(N)=O)NC(=O)[C@H](C)NC(=O)[C@H](CC(C)C)NC(=O)[C@H](C)NC(=O)[C@H](CO)NC(=O)[C@H](Cc3ccc(O)cc3)NC(=O)[C@H](CC(C)C)NC(=O)[C@@H]3CCC(=O)N3)CSSC[C@H](NC(=O)CNC(=O)[C@H](C(C)C)NC(=O)[C@H](Cc3c[nH]cn3)NC2=O)C(=O)N[C@@H]([C@@H](C)O)C(=O)N[C@@H](CCCCN)C(=O)N[C@@H](CCCNC(=N)N)C(=O)N[C@@H](CO)C(=O)N[C@@H](CC(C)C)C(=O)N[C@@H](C)C(=O)N[C@@H](CCCNC(=N)N)C(=O)N[C@@H](Cc2ccccc2)C(=O)N[C@H](C(=O)O)CSSC[C@@H](C(=O)NCC(=O)N[C@@H](CCSC)C(=O)N[C@@H](CO)C(=O)N[C@H](C(=O)N[C@@H](Cc2c[nH]c3ccccc23)C(=O)N[C@@H](CO)C(=O)N[C@@H](CCCCN)C(=O)N[C@@H](CCCNC(=N)N)C(=O)N[C@@H](CO)C(=O)N[C@@H](CC(C)C)C(=O)O)[C@@H](C)O)NC1=O` [long relaxin], for which the “stability by reverse phase HPLC” value in series [1] was “stable by reverse phase HPLC for at least five months”.
Regarding porcine relaxin, the cervical score entry in the series on cervix [2] is listed as “improve the cervical score”. In the series with cervix [3], the “time to increased dilatation of the cervix” value is no more than 8 h. For the same compound, the “morphology of the pregnant cervix (ripening)” value with rabbit cervix is “induce changes in the morphology of the pregnant cervix consistent with ripening”.
